Experimental data: PubChem BioAssay (NCI)
“And” between values parts separate entries of the source, which are not always exact repeats. Equal values may be shown once.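 Five compound concentrations were applied to cells in 96-well plates for 48 hours; endpoints were derived by simple linear interpolation of the resulting dose-response curve. Abbreviation: GI50, concentration required for 50% inhibition of growth. TGI: concentration producing complete growth inhibition.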

These compounds were tested on SNB-78 CNS (assay: NCI anticancer screen, dose series, 48 h).

Row | Compound | TGI
1 | O=C(/C=C/c1ccc(Cl)c(Cl)c1)c1ccc2ccccc2c1 | > 100 µM
2 | Cc1cc(NS(=O)(=O)c2ccc(Nc3c4ccccc4nc4c(C(=O)N5CCN(CCO)CC5)cccc34)cc2)no1 | > 100 µM
3 | COc1cc2[nH]c3c(c2cc1OC)CCN[C@]31CC[C@]2(CC3c4c(cc(OC)c(O)c42)CCN3C)C[C@H]1OC (some centres undefined) | 60.4 µM
4 | O=C1c2ccccc2C(=O)C1(O)c1c[nH]c2ccccc12 | > 100 µM
5 | c1ccc(C2N3CCCCC3[C@@H]3c4[nH]c5ccccc5c4CCN23)nc1 (some centres undefined) | > 100 µM
6 | O=C(Nc1cc(Cl)c(Cl)cc1Cl)C(=O)C1C(=O)NC(=S)NC1=O | > 100 µM
7 | COc1ccc(CN2CC(C)(C)C2=O)c(OC)c1 | > 100 µM
8 | CCOC(=O)/C(C)=C(/O)C(=O)OCC | > 100 µM
9 | CCCCNC1CCCCC[C@H]1O (some centres undefined) | > 100 µM
10 | COc1ccc2c3c([nH]c2c1[N+](=O)[O-])C(C)N(C)CC3 (centres undefined) | > 100 µM
11 | CCOC(=O)N[C@@H]1C(CC(=O)OC)O[C@H]2OC(C)(C)O[C@H]21 (some centres undefined) | > 100 µM
12 | CCCCCCCCCCCCCCCC(=O)OCC(C[As](=O)(O)O)OC(=O)CCCCCCCCCCCCCCC (centres undefined) | 80.8 µM
13 | COc1cc(/C=C/c2ccc(OC)c(O)c2)cc(OC)c1 | 44.4 µM
14 | O=C(Nc1ccccc1-c1nc2ccccc2[nH]c1=O)c1ccccc1 | 69.2 µM
15 | C=C(C)CCN[Si](c1ccccc1)(c1ccccc1)C(C)(C)C | 79 µM
16 | CC1=[N+]([O-])c2ccccc2C(=O)C1=O | > 100 µM
17 | CNC(=S)/N=C(\N)N(C)C | > 100 µM
18 | CC(=O)C1Cn2c(nc3ccccc32)C[Se]1 (centres undefined) | 17.2 µM
19 | COc1cc(Cc2nccc3cc(OC)c(OC)cc23)c(C(C)=O)cc1OC | 214 µM
20 | CN(C)CCC1(C2=CCCC2)CC/C(=C\c2ccc(Cl)cc2)C1=O (centres undefined) | 26.9 µM
21 | CC1=CC(C)(C)N=C2SC(c3ccc(N)cc3)=NN12 | > 100 µM
22 | O=C1C2C3C=C4c5ccccc5N(c5ccccc5)C4(C2C(=O)N1c1ccc([N+](=O)[O-])cc1)[C@H]1C(=O)N(c2ccc([N+](=O)[O-])cc2)C(=O)[C@@H]31 (some centres undefined) | > 100 µM

Each compound was assayed on IGROV1 ovarian (assay: NCI anticancer screen, dose series, 48 h).

Row | Compound | TGI | GI50
23 | COc1ccc(C2=C(Cl)c3cc(OC)c(OC)cc3C2Cl)cc1 (centres undefined) | 35.7 µM | 
24 | O=C(/C=C/c1ccc(Cl)c(Cl)c1)c1ccc2ccccc2c1 | > 100 µM | 
25 | CCOC(=O)C(=O)Nc1ccccc1CC | > 100 µM | 
26 | Cc1[nH]c(=O)nc2[nH][nH]c(=O)c12 | > 100 µM | 
27 | Cc1cc(NS(=O)(=O)c2ccc(Nc3c4ccccc4nc4c(C(=O)N5CCN(CCO)CC5)cccc34)cc2)no1 | > 100 µM | 
28 | COc1cc2[nH]c3c(c2cc1OC)CCN[C@]31CC[C@]2(CC3c4c(cc(OC)c(O)c42)CCN3C)C[C@H]1OC (some centres undefined) | 80.6 µM | 
29 | O=C1c2ccccc2C(=O)C1(O)c1c[nH]c2ccccc12 | > 100 µM | 
30 | c1ccc(C2N3CCCCC3[C@@H]3c4[nH]c5ccccc5c4CCN23)nc1 (some centres undefined) | > 100 µM | 
31 | O=C(Nc1cc(Cl)c(Cl)cc1Cl)C(=O)C1C(=O)NC(=S)NC1=O | > 100 µM | 
32 | COc1ccc(CN2CC(C)(C)C2=O)c(OC)c1 | > 100 µM | 
33 | CCOC(=O)/C(C)=C(/O)C(=O)OCC | > 100 µM | 
34 | O=C(O)CNS(=O)(=O)c1ccc(NC(=O)c2ccc([N+](=O)[O-])cc2)cc1 | > 100 µM | 
35 | CCCCNC1CCCCC[C@H]1O (some centres undefined) | > 100 µM | 
36 | COc1ccc2c3c([nH]c2c1[N+](=O)[O-])C(C)N(C)CC3 (centres undefined) | > 100 µM | 
37 | CCOC(=O)N[C@@H]1C(CC(=O)OC)O[C@H]2OC(C)(C)O[C@H]21 (some centres undefined) | > 100 µM | 
38 | CCCCCCCCCCCCCCCC(=O)OCC(C[As](=O)(O)O)OC(=O)CCCCCCCCCCCCCCC (centres undefined) | > 100 µM | 
39 | COc1cc(/C=C/c2ccc(OC)c(O)c2)cc(OC)c1 | 86.4 µM | 
40 | O=C(Nc1ccccc1-c1nc2ccccc2[nH]c1=O)c1ccccc1 | 70.6 µM | 
41 | C=C(C)CCN[Si](c1ccccc1)(c1ccccc1)C(C)(C)C | 72 µM | 
42 | CC1=[N+]([O-])c2ccccc2C(=O)C1=O | > 100 µM | 
43 | CNC(=S)/N=C(\N)N(C)C | > 100 µM | 
44 | CC(=O)C1Cn2c(nc3ccccc32)C[Se]1 (centres undefined) | 6.02 µM | 
45 | COc1cc(Cc2nccc3cc(OC)c(OC)cc23)c(C(C)=O)cc1OC | 300 µM and 440 µM | 51.4 µM and 92.7 µM
46 | CN(C)CCC1(C2=CCCC2)CC/C(=C\c2ccc(Cl)cc2)C1=O (centres undefined) | 21 µM | 
47 | CC1=CC(C)(C)N=C2SC(c3ccc(N)cc3)=NN12 | > 100 µM | 
48 | O=C1C2C3C=C4c5ccccc5N(c5ccccc5)C4(C2C(=O)N1c1ccc([N+](=O)[O-])cc1)[C@H]1C(=O)N(c2ccc([N+](=O)[O-])cc2)C(=O)[C@@H]31 (some centres undefined) | > 100 µM | 

These compounds were tested on SR leukemia (assay: NCI anticancer screen, dose series, 48 h).

Row | Compound | TGI
49 | COc1ccc(C2=C(Cl)c3cc(OC)c(OC)cc3C2Cl)cc1 (centres undefined) | > 100 µM
50 | O=C(/C=C/c1ccc(Cl)c(Cl)c1)c1ccc2ccccc2c1 | > 100 µM
51 | Cc1[nH]c(=O)nc2[nH][nH]c(=O)c12 | > 100 µM
52 | Cc1cc(NS(=O)(=O)c2ccc(Nc3c4ccccc4nc4c(C(=O)N5CCN(CCO)CC5)cccc34)cc2)no1 | > 100 µM
53 | COc1cc2[nH]c3c(c2cc1OC)CCN[C@]31CC[C@]2(CC3c4c(cc(OC)c(O)c42)CCN3C)C[C@H]1OC (some centres undefined) | 40 µM
